Measured values from patent US11970493B2, “Autotaxin inhibitor compounds” (ILDONG PHARMACEUTICAL CO., LTD., priority 2020, dated 2024).
Structures can show the parent of a compound that is named as a salt.

target: hATX/ENPP2 (Homo sapiens, UniProt Q13822); assay: hATX/ENPP2 biochemical assay using 16:0-LPC as substrate (Amplex Red/choline oxidase/HRP fluorescence); settings: hENPP2 2.5 nM, LPC (16:0) substrate
Method in brief: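 Enzyme preincubated with compounds 15 min at room temperature in 50 mM Tris-HCl pH 8.0, 140 mM NaCl, 5 mM CaCl2, 0.01% Triton X-100. Reaction started with 80 μM LPC (16:0) stock plus Amplex Red/choline oxidase/HRP mix; fluorescence (ex 530/em 590 nm) read kinetically. IC50 from slope between 60 and 70 min.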

Question: Which IC50 does the source give for `CCc1nc2ccc(-c3cnc(C(=O)N4CC[C@@H](O)C4)nc3)cn2c1N(C)c1nc(-c2ccc(F)cc2)c(C#N)s1` [Compound 49, (R)-2-((2-ethyl-6-(2-(3-hydroxypyrrolidine-1-carbonyl)pyrimidin-5-yl)imidazo[1,2-a]pyridin-3-yl)(methyl)amino)-4-(4-fluorophenyl) thiazole-5-carbonitrile] here?
Answer: 20 to 200 nM

Question: `CCc1nc2ccc(-c3cnc(N4CCC(NC(=O)[C@@H]5C[C@H](O)CN5)CC4)nc3)cn2c1N(C)c1nc(-c2ccc(F)cc2)c(C#N)s1` [Compound 75, (2S,4S)—N-(1-(5-(3-((5-cyano-4-(4-fluorophenyl)thiazol-2-yl)(methyl)amino)-2-ethylimidazo[1,2-a]pyridin-6-yl)pyrimidin-2-yl)piperidin-4-yl)-4-hydroxypyrrolidine-2-carboxamide] was tested. Which IC50 did it give?
Answer: ≤ 20 nM

Question: With `CCc1nc2ccc(-c3cnc(N4CC(NC5CNC5)C4)nc3)cn2c1N(C)c1nc(-c2ccc(F)cc2)c(C#N)s1` [Compound 27, 2-((6-(2-(3-(azetidin-3-ylamino)azetidin-1-yl)pyrimidin-5-yl)-2-ethylimidazo[1,2-a]pyridin-3-yl)(methyl)amino)-4-(4-fluorophenyl)thiazole-5-carbonitrile] as the compound, how does the IC50 read?
Answer: 20 to 200 nM

Question: With `CCc1nc2ccc(-c3cnc(N4CC(NC(=O)C5(C#N)CC5)C4)nc3)cn2c1N(C)c1nc(-c2ccc(F)cc2)c(C#N)s1` [Compound 29, 1-cyano-N-(1-(5-(3-((5-cyano-4-(4-fluorophenyl)thiazol-2-yl)(methyl)amino)-2-ethylimidazo[1,2-a]pyridin-6-yl)pyrimidin-2-yl)azetidin-3-yl)cyclopropane-1-carboxamide] as the compound, how does the IC50 read?
Answer: 20 to 200 nM

Question: How did the IC50 turn out when `CCc1nc2ccc(-c3cnc(N4CCC(NC(=O)[C@H]5C[C@H](O)CN5)CC4)nc3)cn2c1N(C)c1nc(-c2ccc(F)cc2)c(C#N)s1` [Compound 74, (2R,4S)—N-(1-(5-(3-((5-cyano-4-(4-fluorophenyl)thiazol-2-yl)(methyl)amino)-2-ethylimidazo[1,2-a]pyridin-6-yl)pyrimidin-2-yl)piperidin-4-yl)-4-hydroxypyrrolidine-2-carboxamide] was run?
Answer: ≤ 20 nM

Question: `CCc1nc2ccc(-c3cnc(N4CC(NC5CN(C)C5)C4)nc3)cn2c1N(C)c1nc(-c2ccc(F)cc2)c(C#N)s1` [80 (hydrochloride salt), 2-((2-ethyl-6-(2-(3-((I-methylazetidin-3-yl)amino)azetidin-1-yl)pyrimidin-5-yl)imidazo[1,2-a]pyridin-3-yl)(methyl)amino)-4-(4-fluorophenyl)thiazole-5-carbonitrile hydrochloride] was tested. Which IC50 did it give?
Answer: 20 to 200 nM

Question: For `CCc1nc2ccc(-c3cnc(N4CCN(C(=O)NC5CNC5)CC4)nc3)cn2c1N(C)c1nc(-c2ccc(F)cc2)c(C#N)s1` [66 (hydrochloride salt), N-(azetidin-3-yl)-4-(5-(3-((5-cyano-4-(4-fluorophenyl)thiazol-2-yl)(methyl)amino)-2-ethylimidazo[1,2-a]pyridin-6-yl)pyrimidin-2-yl)piperazine-1-carboxamide hydrochloride], which IC50 is on record?
Answer: ≤ 20 nM

Question: With `CCc1nc2ccc(-c3cnc(CC(=O)NC)nc3)cn2c1N(C)c1nc(-c2ccc(F)cc2)c(C#N)s1` [Compound 61, 2-(5-(3-((5-cyano-4-(4-fluorophenyl)thiazol-2-yl)(methyl)amino)-2-ethylimidazo[1,2-a]pyridin-6-yl)pyrimidin-2-yl)-N-methyl acetamide] as the compound, how does the IC50 read?
Answer: 20 to 200 nM

Question: How did the IC50 turn out when `CCc1nc2ccc(-c3cnc(NC4CN(C(=O)N5CC(O)C5)C4)nc3)cn2c1N(C)c1nc(-c2ccc(F)cc2)c(C#N)s1` [Compound 37, 2-((2-ethyl-6-(2-((1-(3-hydroxyazetidine-1-carbonyl)azetidin-3-yl)amino)pyrimidin-5-yl)imidazo[1,2-a]pyridin-3-yl)(methyl)amino)-4-(4-fluorophenyl)thiazole-5-carbonitrile] was run?
Answer: 20 to 200 nM

Question: For `CCc1nc2ccc(-c3cnc(N4CCC(NC5CCC5)CC4)nc3)cn2c1N(C)c1nc(-c2ccc(F)cc2)c(C#N)s1` [Compound 108, 2-((6-(2-(4-(cyclobutylamino)piperidin-1-yl)pyrimidin-5-yl)-2-ethylimidazo[1,2-a]pyridin-3-yl)(methyl)amino)-4-(4-fluorophenyl)thiazole-5-carbonitrile], which IC50 is on record?
Answer: 20 to 200 nM

Question: With `CCc1nc2ccc(-c3cnc(C4CCN(CC(=O)N5CCCC5)CC4)nc3)cn2c1N(C)c1nc(-c2ccc(F)cc2)c(C#N)s1` [Compound 104, 2-((2-ethyl-6-(2-(1-(2-oxo-2-(pyrrolidin-1-yl)ethyl)piperidin-4-yl)pyrimidin-5-yl)imidazo[1,2-a]pyridin-3-yl)(methyl)amino)-4-(4-fluorophenyl)thiazole-5-carbonitrile] as the compound, how does the IC50 read?
Answer: 20 to 200 nM

Question: With `CCc1nc2ccc(-c3cnc(C(=O)N4CC[C@H](O)C4)nc3)cn2c1N(C)c1nc(-c2ccc(F)cc2)c(C#N)s1` [Compound 48, (S)-2-((2-ethyl-6-(2-(3-hydroxypyrrolidine-1-carbonyl)pyrimidin-5-yl)imidazo[1,2-a]pyridin-3-yl)(methyl)amino)-4-(4-fluorophenyl) thiazole-5-carbonitrile] as the compound, how does the IC50 read?
Answer: 20 to 200 nM

Question: With `CCc1nc2ccc(-c3cnc(N4CCC(NC5(C#N)CC5)CC4)nc3)cn2c1N(C)c1nc(-c2ccc(F)cc2)c(C#N)s1` [Compound 17, 2-((6-(2-(4-((1-cyanocyclopropyl)amino)piperidin-1-yl)pyrimidin-5-yl)-2-ethylimidazo[1,2-a]pyridin-3-yl)(methyl)amino)-4-(4-fluorophenyl)thiazole-5-carbonitrile] as the compound, how does the IC50 read?
Answer: 20 to 200 nM

Question: For `CCc1nc2ccc(-c3cnc(NCC4CNC4)nc3)cn2c1N(C)c1nc(-c2ccc(F)cc2)c(C#N)s1` [38 (formate salt), 2-((6-(2-((azetidin-3-ylmethyl)amino)pyrimidin-5-yl)-2-ethylimidazo[1,2-a]pyridin-3-yl)(methyl)amino)-4-(4-fluorophenyl)thiazole-5-carbonitrile formate], which IC50 is on record?
Answer: > 200 nM

Question: For `CCc1nc2ccc(-c3cnc(C(=O)N4CC(N5CCC5)C4)nc3)cn2c1N(C)c1nc(-c2ccc(F)cc2)c(C#N)s1` [Compound 14, 2-((6-(2-([1,3′-biazetidine]-1′-carbonyl)pyrimidin-5-yl)-2-ethylimidazo[1,2-a]pyridin-3-yl)(methyl)amino)-4-(4-fluorophenyl) thiazole-5-carbonitrile], which IC50 is on record?
Answer: 20 to 200 nM

Question: Which IC50 does the source give for `CCc1nc2ccc(-c3cnc(N4CCC(NC(=O)C5(O)CC5)CC4)nc3)cn2c1N(C)c1nc(-c2ccc(F)cc2)c(C#N)s1` [Compound 19, N-(1-(5-(3-((5-cyano-4-(4-fluorophenyl)thiazol-2-yl)(methyl)amino)-2-ethylimidazo[1,2-a]pyridin-6-yl)pyrimidin-2-yl)piperidin-4-yl)-1-hydroxycyclopropane-1-carboxamide] here?
Answer: ≤ 20 nM

Question: Which IC50 does the source give for `CCc1nc2ccc(-c3cnc(C(=O)N4CC(NC5CC5)C4)nc3)cn2c1N(C)c1nc(-c2ccc(F)cc2)c(C#N)s1` [Compound 12, 2-((6-(2-(3-(cyclopropylamino)azetidine-1-carbonyl)pyrimidin-5-yl)-2-ethylimidazo[1,2-a]pyridin-3-yl)(methyl)amino)-4-(4-fluorophenyl)thiazole-5-carbonitrile] here?
Answer: 20 to 200 nM

Question: With `CCc1nc2ccc(-c3cnc(CC(=O)N4CC(NC)C4)nc3)cn2c1N(C)c1nc(-c2ccc(F)cc2)c(C#N)s1` [Compound 54, 2-((2-ethyl-6-(2-(2-(3-(methylamino)azetidin-1-yl)-2-oxoethyl)pyrimidin-5-yl)imidazo[1,2-a]pyridin-3-yl)(methyl)amino)-4-(4-fluorophenyl) thiazole-5-carbonitrile] as the compound, how does the IC50 read?
Answer: 20 to 200 nM

Question: Which IC50 does the source give for `CCc1nc2ccc(-c3ccc(N4CCN(C(=O)NC5CCNCC5)CC4)nc3)cn2c1N(C)c1nc(-c2ccc(F)cc2)c(C#N)s1` [Compound 94, 4-(5-(3-((5-cyano-4-(4-fluorophenyl)thiazol-2-yl)(methyl)amino)-2-ethylimidazo[1,2-a]pyridin-6-yl)pyridin-2-yl)-N-(piperidin-4-yl)piperazine-1-carboxamide] here?
Answer: 20 to 200 nM

Question: Which IC50 does the source give for `CCc1nc2ccc(-c3cnc(C4CCN(CC(=O)N5CCC5)CC4)nc3)cn2c1N(C)c1nc(-c2ccc(F)cc2)c(C#N)s1` [Compound 103, 2-((6-(2-(1-(2-(azetidin-1-yl)-2-oxoethyl)piperidin-4-yl)pyrimidin-5-yl)-2-ethylimidazo[1,2-a]pyridin-3-yl)(methyl)amino)-4-(4-fluorophenyl)thiazole-5-carbonitrile] here?
Answer: 20 to 200 nM

Question: Which IC50 does the source give for `CCc1nc2ccc(-c3cnc(NC4CCN(C(=O)C5(O)CC5)CC4)nc3)cn2c1N(C)c1nc(-c2ccc(F)cc2)c(C#N)s1` [Compound 21, 2-((2-ethyl-6-(2-((1-(1-hydroxycyclopropane-1-carbonyl)piperidin-4-yl)amino)pyrimidin-5-yl)imidazo[1,2-a]pyridin-3-yl)(methyl)amino)-4-(4-fluorophenyl) thiazole-5-carbonitrile] here?
Answer: 20 to 200 nM

Question: With `CCc1nc2ccc(-c3cnc(C(=O)N4CC(NC5CCC5)C4)nc3)cn2c1N(C)c1nc(-c2ccc(F)cc2)c(C#N)s1` [Compound 13, 2-((6-(2-(3-(cyclobutylamino)azetidine-1-carbonyl)pyrimidin-5-yl)-2-ethylimidazo[1,2-a]pyridin-3-yl)(methyl)amino)-4-(4-fluorophenyl)thiazole-5-carbonitrile] as the compound, how does the IC50 read?
Answer: > 200 nM

Question: With `CCc1nc2ccc(-c3cnc(N4CC(NC(=O)[C@H]5C[C@@H](O)CN5)C4)nc3)cn2c1N(C)c1nc(-c2ccc(F)cc2)c(C#N)s1` [Compound 25, (2R,4R)—N-(1-(5-(3-((5-cyano-4-(4-fluorophenyl)thiazol-2-yl)(methyl)amino)-2-ethylimidazo[1,2-a]pyridin-6-yl)pyrimidin-2-yl)azetidin-3-yl)-4-hydroxypyrrolidine-2-carboxamide] as the compound, how does the IC50 read?
Answer: 20 to 200 nM

Question: Which IC50 does the source give for `CCc1nc2ccc(-c3ccc(N4CCN(C(=O)C5CN(C)C5)CC4)nc3)cn2c1N(C)c1nc(-c2ccc(F)cc2)c(C#N)s1` [Compound 86, 2-((2-ethyl-6-(6-(4-(1-methylazetidine-3-carbonyl)piperazin-1-yl)pyridin-3-yl)imidazo[1,2-a]pyridin-3-yl)(methyl)amino)-4-(4-fluorophenyl)thiazole-5-carbonitrile] here?
Answer: 20 to 200 nM
